From US6686467B2, “Amide derivatives for the treatment of diseases mediated by cytokines” (Zeneca Limited, priority 1997, dated 2004) come the findings set out here.

Structures are written as SMILES.

Series [1] has as its system TNFα production by human peripheral blood mononuclear cells. Kind of series: PBMC test: TNFα production after lipopolysaccharide stimulation. The conditions noted are these: LPS-stimulated TNFα production. Format: cell-based. The protocol:
The ability of compounds of this invention to inhibit TNFα production was assessed by using human peripheral blood mononuclear cells which synthesise and secrete TNFα when stimulated with lipopolysaccharide.
Peripheral blood mononuclear cells (PBMC) were isolated from heparinised (10 units/ml heparin) human blood by density centrifugation (Lymphoprep™; Nycomed). Mononuclear cells were resuspended in culture medium [RPMI 1640 medium (Gibco) supplemented with 50 units/ml penicillin, 50 μg/ml streptomycin, 2 mM glutamine and 1% heat-inactivated human AB serum (Sigma H-1513)]. Compounds were solubilised in DMSO at a concentration of 50 mM, diluted 1:100 in culture medium and subsequently serial dilutions were made in culture medium containing 1% DMSO. PBMCs (2.4×10^5 cells in 160 μl culture medium) were incubated with 20 μl of varying concentrations of test compound (triplicate cultures) or 20 μl culture medium containing 1% DMSO (control wells) for 30 minutes at 37° C. in a humidified (5%CO2/95% air) incubator (Falcon 3072; 96 well flat-bottom tissue culture plates). 20 μl lipopolysaccharide [LPS E.Coli 0111:B4 (Sigma L-4130), final concentration 10 μg/ml] solubilised in culture medium was added to appropriate 30 wells. 20 μl culture medium was added to “medium alone” control wells. Six “LPS alone” and four “medium alone” controls were included on each 96 well plate. Varying concentrations of a known TNFα inhibitor were included in each test, i.e. an inhibitor of the PDE Type IV enzyme (for example see Semmler, J. Wachtel. H and Endres. S., Int. J. Immunopharmac. (1993), 15(3), 409-413) or an inhibitor of proTNFα convertase (for example, see McGeehan, G. M. et al. Nature (1994) 370, 558-561). Plates were incubated for 7 hours at 37° C. (humidified incubator) after which 100 μl of the supernatant was removed from each well and stored at −70° C. (96 well round-bottom plates; Corning 25850). TNFα levels were determined in each sample using a human TNFα ELISA (see WO92/10190 and Current Protocols in Molecular Biology, vol 2 by Frederick M. Ausbel et al., John Wiley and Sons Inc.). [formula]

The target of series [2] is T1, p38α (Homo sapiens, UniProt Q16539).
T1 construct: c-myc (N); 6His (N); made in house; host or cells: E. coli (PET vectors)
Kind of series: In vitro enzyme assay, p38α isoform. It is filed as biochemical. Conditions: read-out: IC50 against p38α. The protocol: The ability of compounds of the invention to inhibit the enzyme p38 kinase was assessed. Activity of particular test compounds against each of the p38α and p38β isoforms of the enzyme was determined.
Human recombinant MKK6 (GenBank Accesion Number G1209672) was isolated from Image clone 45578 (Genomics, 1996, 33, 151) and utilised to produce protein in the form of a GST fusion protein in a pGEX vector using analogous procedures to those disclosed by J. Han et al., Journal of Biological Chemistry, 1996, 271, 2886-2891, p38α (GenBank Accession Number G529039) and p38β (GenBank Accession Number G1469305) were isolated by PCR amplification of human lymphoblastoid cDNA (GenBank Accession Number GM1416) and human foetal brain cDNA [synthesised from mRNA (Clontech, catalogue no. 6525-1) using a Gibco superscript cDNA synthesis kit] respectively using oligonucleotides designed for the 5′ and 3′ ends of the human p38α and p38β genes using analogous procedures to those described by J. Han et al., Biochimica et Biophysica Acta, 1995, 1265, 224-227 and Y. Jiang et al. Journal of Biological Chemistry 1996, 271, 17920-17926.
Both p38 protein isoforms were expressed in e coli in PET vectors. Human recombinant p38α and p38β isoforms were produced as 5′ c-myc, 6His tagged proteins. Both MKK6 and the p38 proteins were purified using standard protocols: the GST MKK6 was purified using a glutathione sepharose column and the p38 proteins were purified using nickel chelate columns.
The p38 enzymes were activated prior to use by incubation with MKK6 for 3 hours at 30° C. The unactivated coli-expressed MKK6 retained sufficient activity to fully activate both isoforms of p38. The activation incubate comprised p38α (10 μl of 10 mg/ml) or p38β (10 μl of 5 mg/ml) together with MKK6 (1 μl of 1 mg/ml), ‘Kinase buffer’ [100 μl; pH 7.4 buffer comprising Tris (50 mM), EGTA (0.1 mM), sodium orthovanadate (0.1 mM) and β-mercaptoethanol (0.1%)] and MgATP (30 μl of 50 mM Mg(OCOCH3)2 and 0.5 mM ATP). This produced enough activated p38 enzyme for 3 Microtiter plates.
Test compounds were solubilised in DMSO and 10 μl of a 1:10 diluted sample in ‘Kinase Buffer’ was added to a well in a Microtiter plate. For single dose testing, the compounds were tested at 10 μM. ‘Kinase Assay Mix’ [30 μl; comprising Myelin Basic Protein (Gibco BRL cat. no. 1322B-010; 1 ml of a 3.33 mg/ml solution in water), activated p38 enzyme (50 μl) and ‘Kinase Buffer’ (2 ml)] was then added followed by ‘Labelled ATP’ [10 μl; comprising 50 μM ATP, 0.1 μCi ^33P ATP (Amersham International cat. no. BF1000) and 50 mM Mg(OCOCH3)2]. The plates were incubated at room temperature with gentle agitation. Plates containing p38α were incubated for 90 min and plates containing p38β were incubated for 45 min. Incubation was stopped by the addition of 50 μl of 20% trichloroacetic acid (TCA). The precipitated protein was phosphorylated by p38 kinase and test compounds were assessed for their ability to inhibit this phosphorylation. The plates were filtered using a Canberra Packard Unifilter and washed with 2% TCA, dried overnight and counted on a Top Count scintillation counter.
(§1) Test compounds were tested initially at a single dose and active compounds were retested to allow IC50 values to be determined.

Series [3] has as its system p38 kinase. Kind of series: In vitro enzyme assay, p38 kinase (isoform not specified, or p38α and/or p38β). Format: biochemical, human. The conditions noted are these: result in words. The protocol:
The ability of compounds of the invention to inhibit the enzyme p38 kinase was assessed. Activity of particular test compounds against each of the p38α and p38β isoforms of the enzyme was determined. […]
Test compounds were solubilised in DMSO and 10 μl of a 1:10 diluted sample in ‘Kinase Buffer’ was added to a well in a Microtiter plate. […] The precipitated protein was phosphorylated by p38 kinase and test compounds were assessed for their ability to inhibit this phosphorylation. The plates were filtered using a Canberra Packard Unifilter and washed with 2% TCA, dried overnight and counted on a Top Count scintillation counter.
as §1

T1 sequence (Q16539 whole entry): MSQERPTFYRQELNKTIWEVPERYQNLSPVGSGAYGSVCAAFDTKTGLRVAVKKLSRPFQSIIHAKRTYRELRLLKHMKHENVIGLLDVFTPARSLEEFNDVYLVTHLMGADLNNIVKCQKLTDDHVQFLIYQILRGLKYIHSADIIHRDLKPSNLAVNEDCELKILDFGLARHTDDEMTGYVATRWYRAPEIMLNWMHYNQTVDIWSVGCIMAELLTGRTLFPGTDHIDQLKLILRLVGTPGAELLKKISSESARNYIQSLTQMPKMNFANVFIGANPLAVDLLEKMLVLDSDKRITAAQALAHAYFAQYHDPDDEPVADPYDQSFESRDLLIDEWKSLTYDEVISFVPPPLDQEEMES

The compound `Cc1ccc(NC(=O)c2ccc(C#N)cc2)cc1NC(=O)c1ccc(O)cc1` [Example 4, N-[5-(4-Cyanobenzamido)-2-methylphenyl]-4-hydroxybenzamide] returned a melting point of 297 to 299 °C.
Compound `COc1ccc(C(=O)Nc2cc(NC(=O)c3cccc(Br)c3)ccc2C)cc1OC` [Example 6, N-[5-(3-bromobenzamido)-2-methylphenyl]-3,4-dimethoxybenzamide] gave a melting point of 136 to 138 °C.
For `COc1ccc(C(=O)Nc2cc(NC(=O)c3cccc(N(C)C)c3)ccc2C)cc1OC` [Example 9, Compound No. 7, N-[5-(3-dimethylaminobenzamido)-2-methylphenyl]-3,4-dimethoxybenzamide], the IC50 was approximately 7 µM in series [1] and approximately 200 nM in series [2].
Taken in the same sequence, the figures for `Cc1ccc(NC(=O)c2c(F)cccc2Cl)cc1NC(=O)c1ccc(O)cc1` [Example 9, Compound No. 12] were approximately 22 µM and approximately 1700 nM.
As for `Cc1ccc(NC(=O)c2cccc(N3CCOCC3)c2)cc1NC(=O)c1cccc(N2CCOCC2)c1` [Example 9, Compound No. 50, N-[2-methyl-5-(3-morpholinobenzamido)phenyl]-3-morpholinobenzamide], the values for the IC50 in series [1] and in series [2] were approximately 1.5 µM and approximately 40 nM, respectively.
As for `Cc1ccc(NC(=O)c2ccccc2)cc1NC(=O)c1cccc(CN2CCN(C)CC2)c1` [Example 9, Compound No. 51, N-(5-benzamido-2-methylphenyl)-3-(4-methylpiperazin-1-yl)methylbenzamide], the half-inhibitory concentration (IC50) is approximately 3 µM in series [1] and approximately 700 nM in series [2].
For `COc1ccc(C(=O)Nc2cc(NC(=O)c3ccc(O)cc3)ccc2C)cc1OC` [Example 10, N-[5-(4-hydroxybenzamido)-2-methylphenyl]-3,4-dimethoxybenzamide], the melting point lay within 258 to 259 °C.
The same measure, in the same setting: in the case of `COc1ccc(C(=O)Nc2cc(NC(=O)c3cccc(O)c3)ccc2C)cc1OC` [Example 11, N-[5-(3-hydroxybenzamido)-2-methylphenyl]-3,4-dimethoxybenzamide] it was 182 to 183 °C.
Consider `COc1ccc(C(=O)Nc2cc(NC(=O)c3cccc(N)c3)ccc2C)cc1OC` [Example 13, N-[5-(3-aminobenzamido)-2-methylphenyl]-3,4-dimethoxybenzamide], for which the melting point fell in the range of 179 to 180 °C. In series [1], this compound returned an IC50 of approximately 7 µM. Moreover, the IC50 in series [2] is approximately 700 nM.
The compound `Cc1ccc(NC(=O)c2cccc(N(C)C)c2)cc1NC(=O)c1ccccc1O` [Example 30, N-[5-(3-dimethylaminobenzamido)-2-methylphenyl]-2-hydroxybenzamide] gave a melting point of 234 to 238 °C.
The same measure, in the same setting: in the case of `COc1ccc(C(=O)Nc2cc(NC(=O)c3cccc(NC(C)=O)c3)ccc2C)cc1OC` [Example 33, N-[5-(3-acetamidobenzamido)-2-methylphenyl]-3,4-dimethoxybenzamide] it was 187 to 188 °C.
Take `Cc1ccc(NC(=O)c2cccc(N(C)C)c2)cc1NC(=O)c1ccc(O)cc1` [N-[5-(3-Dimethylaminobenzamido)-2-methylphenyl]-4-hydroxybenzamide]: the “p38 kinase inhibitory activity” value in series [3] is listed as “possess p38 kinase inhibitory activity”.
Take `Cc1ccc(NC(=O)CCC2CCCCC2)cc1NC(=O)c1ccc(O)cc1` [N-[5-(3-cyclohexylpropionamido)-2-methylphenyl]-4-hydroxybenzamide]: the values for the IC50 in series [1] and in series [2] were approximately 7 µM and approximately 400 nM, respectively.
For the compound `Cc1ccc(NC(=O)CCC2CCCC2)cc1NC(=O)c1ccc(O)cc1` [N-[5-(3-cyclopentylpropionamido)-2-methylphenyl]-4-hydroxybenzamide], the IC50 in series [2] was approximately 6000 nM.
`Cc1ccc(NC(=O)CCCC2CCCCC2)cc1NC(=O)c1ccc(O)cc1` [N-[5-(4-Cyclohexylbutyrylamino)-2-methylphenyl]-4-hydroxybenzamide] registered a melting point of 159 to 160 °C.
